Source: patent US9156848B2, “Treating diabetes with dipeptidyl peptidase-IV inhibitors” (Merck Sharp & Dohme Corp., priority 2012, dated 2015)

Legend:
[1] = biological target: dipeptidyl peptidase-IV enzyme (DPP-4) (Homo sapiens (Human), UniProt P27487); experiment: continuous fluorometric assay with substrate Gly-Pro-AMC (DPP-4 inhibition); type: biochemical; settings: soluble human DPP-4, 50 μM Gly-Pro-AMC, pH 7.5, room temperature
Method: Inhibition constants are determined as follows. A continuous fluorometric assay is employed with the substrate Gly-Pro-AMC, which is cleaved by DPP-4 to release the fluorescent AMC leaving group. […] A typical reaction contains approximately 50 pM enzyme, 50 μM Gly-Pro-AMC, and buffer (100 mM HEPES, pH 7.5, 0.1 mg/ml BSA) in a total reaction volume of 100 μL. Liberation of AMC is monitored continuously in a 96-well plate fluorometer using an excitation wavelength of 360 nm and an emission wavelength of 460 nm. Under these conditions, approximately 0.8 μM AMC is produced in 30 minutes at 25 degrees C. The enzyme used in these studies was soluble (transmembrane domain and cytoplasmic extension excluded) human protein produced in a baculovirus expression system (Bac-To-Bac, Gibco BRL). […] To measure the dissociation constants for compounds, solutions of inhibitor in DMSO were added to reactions containing enzyme and substrate (final DMSO concentration is 1%). All experiments were conducted at room temperature using the standard reaction conditions described above. To determine the dissociation constants (Ki), reaction rates were fit by non-linear regression to the Michaelis-Menton equation for competitive inhibition.

cardiac allograft = settings: rats; survival doubled from day 7; cited from earlier work
hematopoiesis = settings: mouse, cyclophosphamide-induced neutropenia; cited from earlier work
DPP-4 = DPP-4 (Homo sapiens (Human), UniProt P27487); settings: cited from earlier work
Sequence of DPP-4 (P27487 39-766, species assumed): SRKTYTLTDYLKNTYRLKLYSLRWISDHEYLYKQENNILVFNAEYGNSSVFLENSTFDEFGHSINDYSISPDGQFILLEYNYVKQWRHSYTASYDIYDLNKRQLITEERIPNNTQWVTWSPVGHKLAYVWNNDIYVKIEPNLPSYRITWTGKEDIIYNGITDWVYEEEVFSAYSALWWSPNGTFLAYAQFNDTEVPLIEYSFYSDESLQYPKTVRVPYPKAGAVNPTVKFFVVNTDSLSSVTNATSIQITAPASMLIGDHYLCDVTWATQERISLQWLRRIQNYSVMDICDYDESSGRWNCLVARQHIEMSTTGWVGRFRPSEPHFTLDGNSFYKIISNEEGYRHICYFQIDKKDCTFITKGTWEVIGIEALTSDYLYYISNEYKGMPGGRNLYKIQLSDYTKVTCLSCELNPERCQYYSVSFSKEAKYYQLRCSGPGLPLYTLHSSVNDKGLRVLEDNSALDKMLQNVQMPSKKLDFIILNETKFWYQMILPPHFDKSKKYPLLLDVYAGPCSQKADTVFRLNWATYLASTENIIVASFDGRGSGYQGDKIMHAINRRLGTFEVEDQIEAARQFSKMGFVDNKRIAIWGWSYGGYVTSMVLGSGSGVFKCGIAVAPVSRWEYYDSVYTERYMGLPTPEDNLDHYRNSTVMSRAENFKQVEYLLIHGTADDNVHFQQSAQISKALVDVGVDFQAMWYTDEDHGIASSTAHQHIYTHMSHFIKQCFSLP

Sequence of dipeptidyl peptidase-IV enzyme (DPP-4) (P27487 29-766): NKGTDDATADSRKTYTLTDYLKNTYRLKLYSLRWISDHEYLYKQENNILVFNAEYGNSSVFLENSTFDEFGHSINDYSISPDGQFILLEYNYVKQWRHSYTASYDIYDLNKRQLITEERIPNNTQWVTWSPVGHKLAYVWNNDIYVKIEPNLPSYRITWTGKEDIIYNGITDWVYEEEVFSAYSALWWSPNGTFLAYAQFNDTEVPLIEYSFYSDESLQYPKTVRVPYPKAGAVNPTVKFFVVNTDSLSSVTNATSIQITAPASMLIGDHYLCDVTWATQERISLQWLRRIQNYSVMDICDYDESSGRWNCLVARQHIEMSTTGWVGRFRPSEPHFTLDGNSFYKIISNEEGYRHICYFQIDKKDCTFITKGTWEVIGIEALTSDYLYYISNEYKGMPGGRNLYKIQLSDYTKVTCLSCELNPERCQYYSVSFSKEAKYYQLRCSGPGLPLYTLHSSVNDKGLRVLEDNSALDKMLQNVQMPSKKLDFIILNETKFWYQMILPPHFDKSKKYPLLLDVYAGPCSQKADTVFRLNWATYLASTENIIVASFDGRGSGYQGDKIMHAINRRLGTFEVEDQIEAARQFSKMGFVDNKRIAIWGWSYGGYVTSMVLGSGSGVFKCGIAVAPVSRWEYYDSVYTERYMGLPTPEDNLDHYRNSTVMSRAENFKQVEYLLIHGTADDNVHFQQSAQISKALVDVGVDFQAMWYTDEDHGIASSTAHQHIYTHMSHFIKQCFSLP

| SMILES | IC50 [1] [nM] | other results |
| --- | --- | --- |
| Cc1ccc(S(=O)(=O)N=S(C)(=O)n2cc3c(n2)CN([C@H]2CO[C@H](c4cc(F)ccc4F)[C@@H](N)C2)C3)cc1 (stereo partly drawn) [Example 1] | 18.5 | – |
| C[C@]1(N2Cc3cn(S(C)(=O)=O)nc3C2)CO[C@H](c2cc(F)ccc2F)[C@@H](N)C1 [Example 3] | 37 | – |
| C[C@]1(N2Cc3cn(S(=O)(=O)NC(=O)OCc4ccccc4)nc3C2)CO[C@H](c2cc(F)ccc2F)[C@@H](N)C1 [Example 4] | 8.8 | – |
| CC(C)N1CCC(c2ccccc2)(c2ccccc2)CC1 [Prodipine, Pro-Pro-diphenyl-phosphonate] | – | cardiac allograft survival (cardiac allograft): 14 day |
| CC(C)[C@H](N)C(=O)N1CCC[C@H]1B(O)O [Val-Boro-Pro] | – | hematopoiesis (hematopoiesis): stimulated hematopoiesis |
| CC[C@H](C)[C@H](N)C(=O)N1CCC[C@H]1C(=O)N[C@H](C(=O)O)[C@@H](C)CC [diprotin A] | – | degradation of GRF to GRF[3-44] in plasma (DPP-4): prevented |
